In brackets after ≈: the same amount, converted by molar mass. Activity calls are given as the source filed them.
Legend:
Staphylococcus aureus [1] = experiment: Antimicrobial activity against methicillin-resistant Staphylococcus aureus CBD-635 assessed as zone of inhibition at 5 mg/ml after 24 hrs by disk diffusion assay; type: functional; settings: CBD-635, 24 h, read-out: IZ
Staphylococcus aureus [2] = experiment: Antimicrobial activity against methicillin-resistant Staphylococcus aureus CBD-635 assessed as complete inhibition of bacterial growth after overnight incubation; type: functional
Staphylococcus aureus [3] = experiment: Antimicrobial activity against methicillin-resistant Staphylococcus aureus CBD-635 assessed as complete inhibition of bacterial growth at 5 times MIC after overnight incubation in presence of tetrahydrofolic acid; type: functional, organism-based
Staphylococcus aureus [4] = experiment: Antimicrobial activity against N2,N4-dibenzylquinazoline-2,4-diamine-induced methicillin-resistant Staphylococcus aureus CBD-635 mutant M1 assessed as complete inhibition of bacterial growth after overnight incubation; type: functional
Staphylococcus aureus [5] = experiment: Antimicrobial activity against N2,N4-dibenzylquinazoline-2,4-diamine-induced methicillin-resistant Staphylococcus aureus CBD-635 mutant M2 assessed as complete inhibition of bacterial growth after overnight incubation; type: functional
Staphylococcus aureus [6] = experiment: Antimicrobial activity against N2,N4-dibenzylquinazoline-2,4-diamine-induced methicillin-resistant Staphylococcus aureus CBD-635 mutant M3 assessed as complete inhibition of bacterial growth after overnight incubation; type: functional
Staphylococcus aureus [7] = experiment: Antimicrobial activity against N2,N4-dibenzylquinazoline-2,4-diamine-induced methicillin-resistant Staphylococcus aureus CBD-635 mutant M4 assessed as complete inhibition of bacterial growth after overnight incubation; type: functional
Staphylococcus aureus [8] = experiment: Antimicrobial activity against N2,N4-dibenzylquinazoline-2,4-diamine-induced methicillin-resistant Staphylococcus aureus CBD-635 mutant M5 assessed as complete inhibition of bacterial growth after overnight incubation; type: functional
Staphylococcus aureus [9] = experiment: Antimicrobial activity against N2,N4-dibenzylquinazoline-2,4-diamine-induced methicillin-resistant Staphylococcus aureus CBD-635 mutant M6 assessed as complete inhibition of bacterial growth after overnight incubation; type: functional
Staphylococcus aureus [10] = experiment: Antimicrobial activity against N2,N4-dibenzylquinazoline-2,4-diamine-induced methicillin-resistant Staphylococcus aureus CBD-635 mutant M7 assessed as complete inhibition of bacterial growth after overnight incubation; type: functional
Staphylococcus aureus [11] = experiment: Antimicrobial activity against Staphylococcus aureus; type: functional, organism-based
Bacillus subtilis = experiment: Antimicrobial activity against Bacillus subtilis; type: functional, organism-based
Streptococcus pyogenes = experiment: Antimicrobial activity against Streptococcus pyogenes; type: functional
Salmonella typhimurium = experiment: Antimicrobial activity against Salmonella typhimurium; type: functional, Salmonella enterica subsp. enterica serovar Typhimurium; settings: Salmonella enterica
Escherichia coli = experiment: Antimicrobial activity against Escherichia coli; type: functional
Aspergillus niger = experiment: Antimicrobial activity against Aspergillus niger; type: functional
Candida albicans = experiment: Antimicrobial activity against Candida albicans; type: functional
Trichoderma viride = experiment: Antimicrobial activity against Trichoderma viride; type: functional
Klebsiella pneumoniae = experiment: Antimicrobial activity against Klebsiella pneumoniae; type: functional
Staphylococcus aureus [12] = experiment: Bactericidal activity against methicillin-resistant Staphylococcus aureus CBD-635 assessed as bacterial killing; type: functional
Staphylococcus aureus [13] = experiment: Antimicrobial activity against trimethoprim-resistant Staphylococcus aureus assessed as complete inhibition of bacterial growth after 24 hrs; type: functional, organism-based
Staphylococcus aureus [14] = experiment: Antimicrobial activity against quinazoline-resistant Staphylococcus aureus assessed as complete inhibition of bacterial growth after 24 hrs; type: functional, organism-based
Staphylococcus aureus [15] = experiment: Antimicrobial activity against wild type Staphylococcus aureus in presence of sulfamethoxazole; type: functional
Staphylococcus aureus [16] = experiment: Antimicrobial activity against Staphylococcus aureus infected Galleria mellonella assessed as increase in larvae survival at 5 times MIC; type: functional
Staphylococcus aureus [17] = experiment: Antimicrobial activity against Staphylococcus aureus infected Galleria mellonella assessed as increase in larvae survival at 10 times MIC; type: functional
physchem [18] = settings: pampa, pH 7.4
physchem [19] = settings: pampa, pH 4

Compound | zone of inhibition at 5000 µg/mL (Staphylococcus aureus [1]) [mm] | MIC (Staphylococcus aureus [2]) [µM] | inhibition (Staphylococcus aureus [3]) | MIC (Staphylococcus aureus [4]) [µM] | MIC (Staphylococcus aureus [5]) [µM] | MIC (Staphylococcus aureus [6]) [µM] | MIC (Staphylococcus aureus [7]) [µM] | MIC (Staphylococcus aureus [8]) [µM] | MIC (Staphylococcus aureus [9]) [µM] | MIC (Staphylococcus aureus [10]) [µM] | also measured
COc1cccc2nc(NC(C)C)nc(NCc3ccco3)c12 | 9 | > 80 | inactive | – | – | – | – | – | – | – | –
CC(C)Nc1nc(NC2CCCC2)nc2ccccc12 | 8 | 190 (≈ 51.4 µg/mL) | inactive | – | – | – | – | – | – | – | –
COc1ccc(CNc2nc(NCc3ccccc3)c3ccccc3n2)cc1 | – | 0.67 (≈ 0.248 µg/mL) | inactive | 0.67 (≈ 0.248 µg/mL) | 0.67 (≈ 0.248 µg/mL) | 0.67 (≈ 0.248 µg/mL) | 270 (≈ 100 µg/mL) | 270 (≈ 100 µg/mL) | 270 (≈ 100 µg/mL) | 270 (≈ 100 µg/mL) | –
CCCCNc1nc(Nc2ccccc2)c2ccccc2n1 | 14 | 34 (≈ 9.94 µg/mL) | inactive | – | – | – | – | – | – | – | –
Cc1ccc(CNc2nc(NCc3ccc(C)cc3)c3ccccc3n2)cc1 | – | 27 (≈ 9.95 µg/mL) | inactive | 27 (≈ 9.95 µg/mL) | 27 (≈ 9.95 µg/mL) | 2.7 (≈ 0.995 µg/mL) | 2.7 (≈ 0.995 µg/mL) | 2.7 (≈ 0.995 µg/mL) | 2.7 (≈ 0.995 µg/mL) | 2.7 (≈ 0.995 µg/mL) | –
CC(C)Nc1nc(NCc2ccccc2)c2ccccc2n1 | 13 | 34 (≈ 9.94 µg/mL) | inactive | – | – | – | – | – | – | – | –
Clc1ccc(CNc2nc(NCc3ccccc3)nc3ccccc23)cc1 | – | 67 (≈ 25.1 µg/mL) | inactive | 2.7 (≈ 1.01 µg/mL) | 2.7 (≈ 1.01 µg/mL) | 2.7 (≈ 1.01 µg/mL) | 2.7 (≈ 1.01 µg/mL) | 2.7 (≈ 1.01 µg/mL) | 2.7 (≈ 1.01 µg/mL) | 2.7 (≈ 1.01 µg/mL) | –
CC(C)Nc1nc(NC2CCCC2)c2ccccc2n1 | 10 | 37 (≈ 10 µg/mL) | inactive | – | – | – | – | – | – | – | –
c1ccc(Nc2nc(Nc3ccccc3)c3ccccc3n2)cc1 | 10 | 32 (≈ 10 µg/mL) | inactive | – | – | – | – | – | – | – | –
c1ccc2c(c1)cc1c3ccccc3nc(-c3csc4ccccc34)n21 | – | – | – | – | – | – | – | – | – | – | MIC (Staphylococcus aureus [11]): 2 µg/mL (≈ 5.71 µM); MIC (Bacillus subtilis): 2 µg/mL (≈ 5.71 µM); MIC (Streptococcus pyogenes): 2 µg/mL (≈ 5.71 µM); MIC (Salmonella typhimurium): 2 µg/mL (≈ 5.71 µM); MIC (Escherichia coli): 2 µg/mL (≈ 5.71 µM); MIC (Aspergillus niger): 2 µg/mL (≈ 5.71 µM); MIC (Candida albicans): 2 µg/mL (≈ 5.71 µM); MIC (Trichoderma viride): 2 µg/mL (≈ 5.71 µM); MIC (Klebsiella pneumoniae): 2 µg/mL (≈ 5.71 µM)
Clc1ccc(CNc2nc(NCc3ccccc3)c3ccccc3n2)cc1 | – | 27 (≈ 10.1 µg/mL) | inactive | 27 (≈ 10.1 µg/mL) | 2.7 (≈ 1.01 µg/mL) | 2.7 (≈ 1.01 µg/mL) | 2.7 (≈ 1.01 µg/mL) | 2.7 (≈ 1.01 µg/mL) | 2.7 (≈ 1.01 µg/mL) | 2.7 (≈ 1.01 µg/mL) | –
Clc1ccc(CNc2nc(NCc3ccc(Cl)cc3)c3ccccc3n2)cc1 | – | 2.4 (≈ 0.982 µg/mL) | inactive | 2.4 (≈ 0.982 µg/mL) | 2.4 (≈ 0.982 µg/mL) | – | – | – | – | – | MBC50 (Staphylococcus aureus [12]): 7.2 µM (≈ 2.95 µg/mL); inhibition (Staphylococcus aureus [13]): Active; inhibition (Staphylococcus aureus [14]): Active; fractional inhibitory concentration index (FICI) (Staphylococcus aureus [15]): 0.12; Survival (Staphylococcus aureus [16]): 50%; Survival (Staphylococcus aureus [17]): 60%
CCCCNc1nc(NCc2ccccc2)c2ccc(Cl)cc2n1 | – | 0.73 (≈ 0.249 µg/mL) | inactive | 0.73 (≈ 0.249 µg/mL) | 0.73 (≈ 0.249 µg/mL) | 0.73 (≈ 0.249 µg/mL) | 0.73 (≈ 0.249 µg/mL) | 0.73 (≈ 0.249 µg/mL) | 0.73 (≈ 0.249 µg/mL) | 0.73 (≈ 0.249 µg/mL) | –
CC(C)Nc1nc(NCc2ccco2)c2ccc(Cl)cc2n1 | 12 | 32 (≈ 10.1 µg/mL) | inactive | – | – | – | – | – | – | – | –
Cc1ccc(Nc2nc(-c3ccccc3)nc3ccccc23)cc1 | – | – | – | – | – | – | – | – | – | – | EC50 (Staphylococcus aureus [11]): 0.8 µg/mL (≈ 2.57 µM); MIC (Staphylococcus aureus [11]): 10 µg/mL (≈ 32.1 µM); EC50 (Bacillus subtilis): 0.7 µg/mL (≈ 2.25 µM); MIC (Bacillus subtilis): 1 µg/mL (≈ 3.21 µM)
Clc1ccc2c(NCc3ccccc3)nc(NCc3ccccc3)nc2c1 | – | 27 (≈ 10.1 µg/mL) | inactive | 27 (≈ 10.1 µg/mL) | 27 (≈ 10.1 µg/mL) | 2.7 (≈ 1.01 µg/mL) | 2.7 (≈ 1.01 µg/mL) | 2.7 (≈ 1.01 µg/mL) | 2.7 (≈ 1.01 µg/mL) | 2.7 (≈ 1.01 µg/mL) | –
CC(C)Nc1nc(NCc2ccccc2)nc2ccccc12 | 13 | 34 (≈ 9.94 µg/mL) | inactive | – | – | – | – | – | – | – | –
CNC(=C[N+](=O)[O-])NCCSCc1ccc(CN(C)C)o1.Cl [RANITIDINE HYDROCHLORIDE] | – | – | – | – | – | – | – | – | – | – | Papp (physchem [18]): 2.2 ×10⁻⁶ cm/s; Papp (physchem [19]): 5.2 ×10⁻⁶ cm/s
Cc1ccc(CNc2nc(NCc3ccccc3)nc3ccccc23)cc1 | – | 71 (≈ 25.2 µg/mL) | inactive | 2.8 (≈ 0.992 µg/mL) | 2.8 (≈ 0.992 µg/mL) | 28 (≈ 9.92 µg/mL) | 28 (≈ 9.92 µg/mL) | 28 (≈ 9.92 µg/mL) | 28 (≈ 9.92 µg/mL) | 28 (≈ 9.92 µg/mL) | –
Clc1ccc(Nc2nc(NCc3ccco3)c3ccccc3n2)cc1 | 10 | 29 (≈ 10.2 µg/mL) | inactive | – | – | – | – | – | – | – | –

From ChEMBL document CHEMBL3259619, “Antibacterial activity of a series of N2,N4-disubstituted quinazoline-2,4-diamines” (J Med Chem, 2014)
